Assay results: patent US11891365B2, “3-alkyl-4-amido-bicyclic [4,5,0] hydroxamic acids as HDAC inhibitors” (Valo Health, Inc., priority 2015, dated 2024)

Target: T1, Full length human recombinant HDAC6 protein (Homo sapiens, UniProt Q9UBN7)
T1 sequence (Q9UBN7 1-1215): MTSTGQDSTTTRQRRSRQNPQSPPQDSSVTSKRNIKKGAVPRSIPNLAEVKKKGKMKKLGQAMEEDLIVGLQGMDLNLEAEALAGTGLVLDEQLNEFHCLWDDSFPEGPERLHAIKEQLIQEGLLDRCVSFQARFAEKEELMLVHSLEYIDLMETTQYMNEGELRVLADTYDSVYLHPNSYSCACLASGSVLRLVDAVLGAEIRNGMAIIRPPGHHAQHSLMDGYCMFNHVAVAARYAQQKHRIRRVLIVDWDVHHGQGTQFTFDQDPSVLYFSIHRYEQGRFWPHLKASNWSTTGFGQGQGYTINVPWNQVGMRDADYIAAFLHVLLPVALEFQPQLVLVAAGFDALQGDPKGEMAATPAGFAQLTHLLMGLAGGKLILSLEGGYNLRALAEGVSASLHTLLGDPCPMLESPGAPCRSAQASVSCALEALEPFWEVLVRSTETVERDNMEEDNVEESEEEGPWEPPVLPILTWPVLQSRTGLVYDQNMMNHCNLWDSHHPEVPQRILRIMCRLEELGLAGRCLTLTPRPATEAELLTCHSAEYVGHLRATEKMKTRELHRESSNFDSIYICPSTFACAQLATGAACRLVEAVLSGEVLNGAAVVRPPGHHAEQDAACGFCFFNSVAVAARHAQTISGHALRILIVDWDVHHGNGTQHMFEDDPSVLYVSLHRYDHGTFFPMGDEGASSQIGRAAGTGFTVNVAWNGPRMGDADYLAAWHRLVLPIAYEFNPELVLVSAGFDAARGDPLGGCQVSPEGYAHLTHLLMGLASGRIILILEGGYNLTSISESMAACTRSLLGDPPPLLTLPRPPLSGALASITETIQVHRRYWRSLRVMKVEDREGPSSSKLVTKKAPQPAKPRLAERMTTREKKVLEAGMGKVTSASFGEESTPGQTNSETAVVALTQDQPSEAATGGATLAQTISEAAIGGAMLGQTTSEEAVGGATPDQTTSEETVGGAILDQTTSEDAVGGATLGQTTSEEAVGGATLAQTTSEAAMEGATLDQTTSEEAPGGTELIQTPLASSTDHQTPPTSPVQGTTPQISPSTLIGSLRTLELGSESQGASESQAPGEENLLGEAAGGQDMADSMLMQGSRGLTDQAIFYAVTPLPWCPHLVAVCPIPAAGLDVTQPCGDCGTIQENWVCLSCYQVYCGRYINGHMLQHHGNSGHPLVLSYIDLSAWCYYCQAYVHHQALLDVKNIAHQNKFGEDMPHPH
Assay: In vitro histone deacetylase assay: enzymatic HDAC6 electrophoretic mobility shift assay
Assay type: biochemical
Conditions: 1 nM enzyme, 2 μM peptide substrate RHKK(Ac)-NH2, 25° C., 12 concentrations; read-out: Inhibitory Concentration (IC50) Values against HDAC6, Activity Range
Procedure: The enzymatic HDAC6 assay was performed using electrophoretic mobility shift assay. […] The enzymatic reactions were assembled in 384 well plates in a total volume of 25 μL in a reaction buffer composing: 100 mM HEPES, pH7.5, 25 mM KCl, 0.1% bovine serum albumin, 0.01% Triton X-100, 1% DMSO (from compounds) 2 μM of the fluorescently labeled peptide substrate and enzyme. The enzyme was added at a final concentration of 1 nM. The peptide substrate RHKK(Ac)—NH2 was used. The compounds were tested at 12 concentrations spaced by 3× dilution intervals. Negative control samples ([…] in the absence of inhibitor) and positive control samples (100%-inhibition) were assembled in replicates of four in each assay plate. The reactions were incubated at 25° C. and quenched by the addition of 45 μL of termination buffer (100 mM HEPES, pH 7.5, 0.01% Triton X-100, 0.05% SDS).
The terminated assay plates were analyzed on LabChip® 3000 microfluidic electrophoresis instrument (Perkin Elmer/Caliper Life Sciences). The fluorescence intensity of the electrophoretically separated de-acetylated product and substrate peptide was measured. Activity in each sample was determined as the product to sum ratio (PSR): P/(S+P), where P is the peak height of the product peptide and S is the peak height of the substrate peptide. Percent inhibition (Pinh) is determined using the following equation:
Pinh=(PSR0%−PSRinh)/(PSR0%−PSR100%)*100, where PSRinh is the product sum ratio in the presence of inhibitor, PSR0% is the average product sum ration in the absence of inhibitor and PSR100% is the average product sum ratio in 100%-inhibition control samples. The IC50 values of inhibitors were determined by fitting the %-inhibition curves with 4 parameter dose-response model using XLfit 4 software.

IC50	Compound
≤ 100 nM	O=C(NO)c1ccc2c(c1)OCCN(C(=O)C1CCC1)C2 [4-(cyclobutanecarbonyl)-N-hydroxy-2,3,4,5-tetrahydrobenzo[f][1,4]oxazepine-8-carboxamide]
≤ 100 nM	CC1(C(=O)N2Cc3ccc(C(=O)NO)cc3O[C@@H](c3ccccc3)C2)CCC1 [(S)-N-hydroxy-4-(1-methylcyclobutane-1-carbonyl)-2-phenyl-2,3,4,5-tetrahydrobenzo[f][1,4]oxazepine-8-carboxamide]
100 to 500 nM	COc1ccc(C(C)(C)C(=O)N2CCOc3cc(C(=O)NO)ccc3C2)cc1OC [4-(2-(3,4-dimethoxyphenyl)-2-methylpropanoyl)-N-hydroxy-2,3,4,5-tetrahydrobenzo[f][1,4]oxazepine-8-carboxamide]
100 to 500 nM	O=C(NO)c1ccc2c(c1)OCCN(C(=O)C(c1ccccc1)n1cnnn1)C2 (stereo not shown) [N-hydroxy-4-(2-phenyl-2-(1H-tetrazol-1-yl)acetyl)-2,3,4,5-tetrahydrobenzo[f][1,4]oxazepine-8-carboxamide]
≤ 100 nM	C[C@H]1COc2cc(C(=O)NO)ccc2CN1C(=O)C1CCC1 [(S)-4-(cyclobutanecarbonyl)-N-hydroxy-3-methyl-2,3,4,5-tetrahydrobenzo[f][1,4]oxazepine-8-carboxamide]
≤ 100 nM	COC1(C(=O)N2CCOc3cc(C(=O)NO)ccc3C2)CCC1 [N-hydroxy-4-(1-methoxycyclobutane-1-carbonyl)-2,3,4,5-tetrahydrobenzo[f][1,4]oxazepine-8-carboxamide]
> 500 nM	C[C@H]1c2cc(C(=O)NO)ccc2OCCN1C(=O)C1CCOCC1 [(S)-N-hydroxy-5-methyl-4-(tetrahydro-2H-pyran-4-carbonyl)-2,3,4,5-tetrahydrobenzo[f][1,4]oxazepine-7-carboxamide]
≤ 100 nM	CC(C)C(=O)N1Cc2ccc(C(=O)NO)cc2OC[C@@H]1C [(S)-N-hydroxy-4-isobutyryl-3-methyl-2,3,4,5-tetrahydrobenzo[f][1,4]oxazepine-8-carboxamide]
> 500 nM	O=C(NO)c1ccc2c(c1)OCC(C1CCOCC1)N(C(=O)C1CCOCC1)C2 (stereo not shown) [N-hydroxy-4-(tetrahydro-2H-pyran-4-carbonyl)-3-(tetrahydro-2H-pyran-4-yl)-2,3,4,5-tetrahydrobenzo[f][1,4]oxazepine-8-carboxamide]
100 to 500 nM	CC(CC(=O)N1CCOc2cc(C(=O)NO)ccc2C1)c1ccccc1 (stereo not shown) [N-hydroxy-4-(3-phenylbutanoyl)-2,3,4,5-tetrahydrobenzo[f][1,4]oxazepine-8-carboxamide]
≤ 100 nM	COCC1(C(=O)N2Cc3ccc(C(=O)NO)cc3OC[C@@H]2C)COC1 [(S)-N-hydroxy-4-(3-(methoxymethyl)oxetane-3-carbonyl)-3-methyl-2,3,4,5-tetrahydrobenzo[f][1,4]oxazepine-8-carboxamide]
≤ 100 nM	C[C@H]1c2ccc(C(=O)NO)cc2OCCN1C(=O)C1COC1 [(S)-N-hydroxy-5-methyl-4-(oxetane-3-carbonyl)-2,3,4,5-tetrahydrobenzo[f][1,4]oxazepine-8-carboxamide]
≤ 100 nM	C[C@H]1c2ccc(C(=O)NO)cc2OCCN1C(=O)C1(C)COC1 [(S)-N-hydroxy-5-methyl-4-(3-methyloxetane-3-carbonyl)-2,3,4,5-tetrahydrobenzo[f][1,4]oxazepine-8-carboxamide]
100 to 500 nM	O=C(NO)c1ccc2c(c1)OCCN(C(=O)C1OC3(CCNCC3)c3ccccc31)C2 (stereo not shown) [N-hydroxy-4-(3H-spiro[isobenzofuran-1,4′-piperidine]-3-carbonyl)-2,3,4,5-tetrahydrobenzo[f][1,4]oxazepine-8-carboxamide]
≤ 100 nM	O=C(NO)c1ccc2c(c1)OCCN(C(=O)C1Cc3ccccc3C1)C2 [4-(2,3-dihydro-1H-indene-2-carbonyl)-N-hydroxy-2,3,4,5-tetrahydrobenzo[f][1,4]oxazepine-8-carboxamide]
≤ 100 nM	C[C@@H]1CN(C=O)Cc2ccc(C(=O)NO)cc2O1 [(R)-4-formyl-N-hydroxy-2-methyl-2,3,4,5-tetrahydrobenzo[f][1,4]oxazepine-8-carboxamide]
≤ 100 nM	O=C(NO)c1ccc2c(c1)OC[C@H](C(F)(F)F)N(C(=O)C1COC1)C2 [(R)-N-hydroxy-4-(oxetane-3-carbonyl)-3-(trifluoromethyl)-2,3,4,5-tetrahydrobenzo[f][1,4]oxazepine-8-carboxamide]
≤ 100 nM	O=C(NO)c1ccc2c(c1)OCCN(C(=O)C1(c3ccccc3)CCC1)C2 [N-hydroxy-4-(1-phenylcyclobutane-1-carbonyl)-2,3,4,5-tetrahydrobenzo[f][1,4]oxazepine-8-carboxamide]
> 500 nM	COc1ccc(CC(=O)N2CCOc3cc(C(=O)NO)ccc3C2)cc1 [N-hydroxy-4-(2-(4-methoxyphenyl)acetyl)-2,3,4,5-tetrahydrobenzo[f][1,4]oxazepine-8-carboxamide]
≤ 100 nM	COC1CCC(C(=O)N2CCOc3cc(C(=O)NO)ccc3C2)CC1 (stereo not shown) [N-hydroxy-4-(4-methoxycyclohexane-1-carbonyl)-2,3,4,5-tetrahydrobenzo[f][1,4]oxazepine-8-carboxamide]
≤ 100 nM	O=C(NO)c1ccc2c(c1)OCCN(C(=O)[C@H]1CCOC1)C2 [(S)-N-hydroxy-4-(tetrahydrofuran-3-carbonyl)-2,3,4,5-tetrahydrobenzo[f][1,4]oxazepine-8-carboxamide]
100 to 500 nM	O=C(NO)c1ccc2c(c1)OCCN(C(=O)C1Oc3ccccc3C13CCNCC3)C2 (stereo not shown) [N-hydroxy-4-(2H-spiro[benzofuran-3,4′-piperidine]-2-carbonyl)-2,3,4,5-tetrahydrobenzo[f][1,4]oxazepine-8-carboxamide]
100 to 500 nM	O=C(NO)c1ccc2c(c1)OCCN(C(=O)c1ccc(OC(F)F)cc1)C2 [4-(4-(difluoromethoxy)benzoyl)-N-hydroxy-2,3,4,5-tetrahydrobenzo[f][1,4]oxazepine-8-carboxamide]
100 to 500 nM	CC(C)(C)OC(=O)N1CCC2(CCC(C(=O)N3CCOc4cc(C(=O)NO)ccc4C3)C2)CC1 (stereo not shown) [tert-butyl 2-(8-(hydroxycarbamoyl)-2,3,4,5-tetrahydrobenzo[f][1,4]oxazepine-4-carbonyl)-8-azaspiro[4.5]decane-8-carboxylate]
≤ 100 nM	C[C@H]1c2ccc(C(=O)NO)cc2OCCN1C(=O)[C@H]1CCCOC1 [(S)-N-hydroxy-5-methyl-4-((S)-tetrahydro-2H-pyran-3-carbonyl)-2,3,4,5-tetrahydrobenzo[f][1,4]oxazepine-8-carboxamide]
100 to 500 nM	COc1cccc(C(C)(C)C(=O)N2CCOc3cc(C(=O)NO)ccc3C2)c1 [N-hydroxy-4-(2-(3-methoxyphenyl)-2-methylpropanoyl)-2,3,4,5-tetrahydrobenzo[f][1,4]oxazepine-8-carboxamide]
≤ 100 nM	C[C@@H]1CN(C(=O)C2(C)CCC2)Cc2ccc(C(=O)NO)cc2O1 [(R)-N-hydroxy-2-methyl-4-(1-methylcyclobutane-1-carbonyl)-2,3,4,5-tetrahydrobenzo[f][1,4]oxazepine-8-carboxamide]
≤ 100 nM	C[C@H]1COc2cc(C(=O)NO)ccc2CN1C(=O)CCOc1ccc(F)cc1 [(S)-4-(3-(4-fluorophenoxy)propanoyl)-N-hydroxy-3-methyl-2,3,4,5-tetrahydrobenzo[f][1,4]oxazepine-8-carboxamide]
